row,melting point [°C],Compound
1,192 to 194,Cc1ncc(C#N)c(Nc2cccc3[nH]ccc23)c1I
2,243 to 244,Cc1[nH]c2ncnc(Nc3cccc(Br)c3)c2c1C
3,240 to 241,CN1C(=O)N(c2ccc(C(=O)O)cc2)S(=O)(=O)c2ccc(OCC3CCCCC3)cc21
4,107 to 109,CC(C)(CCCSCCNS(=O)(=O)c1ccc(Cl)cc1)C(=O)O
5,230,Cc1cc(-c2cc(C(F)(F)F)n3ncc(C(=O)Nc4cccc(S(=O)(=O)N5CCCC5)c4)c3n2)ccc1Cl
6,95 to 96,CCCCCCCCCCCCCCCCOc1cc(NS(=O)(=O)c2cc([N+](=O)[O-])ccc2N2CCOCC2)c(OC(C)=O)cc1C
7,221 to 225,CC(C)(O)C1CCN(S(=O)(=O)c2cc(C#N)ccc2Oc2cc(Cl)ccc2Cl)CC1
8,100 to 101,O=C(c1ccc(Cl)cc1)c1nccc2ccccc12
9,167 to 168,CN(c1ccccc1)c1nc(Cl)nc2sccc12
10,130 to 140,CCCCc1nc(CO)c(C(=O)O)n1Cc1ccc(-c2ccccc2C(=O)O)cc1
11,187 to 188,Cc1nc(N2CCN(Cc3ccc(OC(F)(F)F)cc3)C2=O)sc1C(=O)Nc1ccccc1
12,154 to 155,CC(C)(Oc1ccc(CCC(=O)c2ccc(-c3ccc(C(F)(F)F)cc3)s2)cc1)C(=O)O
13,221 to 223,CC(=O)Nc1ncc(/C=C\c2ccc([N+](=O)[O-])cc2)s1
14,122 to 125,CC#Cc1cc(=O)n2nc(S(=O)(=O)CCCCCC)sc2n1
15,140,CN(c1ccc(O)cc1)c1cc2ccc(Cl)cc2cn1
16,93,COc1ccc(C(=O)C(NC(=O)CCCCCBr)c2ccc(OC)cc2)cc1 (stereo not drawn)
17,122 to 123,COc1ccc(Br)c2c1-c1ccc(NS(C)(=O)=O)cc1C(c1ccccc1)O2 (stereo not drawn)
18,99 to 100,CNC(=S)Nc1ccccc1CC(=O)OC

row,melting point [°C],Compound
1,118,COc1ccccc1NC(C#N)c1c(Cl)cccc1Cl (stereo not drawn)
2,56 to 67,CCCn1cnc2c1c(=O)n(CCCCCCOc1ccc(OC)cc1)c(=O)n2C
3,165 to 167,CC(=C(C#N)C(N)=O)c1ccc(Cl)cc1
4,138,Nc1cccc(C(=O)NS(=O)(=O)c2ccccc2)c1
5,93 to 94,COC(=O)c1ccc(CCC(=O)/C=C/c2ccc(O)c(OC)c2)o1
6,120 to 121,Clc1ccc(-c2nc(Cl)cc(Cl)n2)cc1
7,97 to 98,CN(C)C(=O)c1cc(Cl)ccc1N
8,108 to 111,CC1CCCN1c1cc(F)cc(C(=O)Nc2ccc(OCCN3CCOCC3)c3ccccc23)c1 (stereo not drawn)
9,160 to 162,COCc1c(C(=O)OC(C)C)ncc2[nH]c3cccc(-c4cccs4)c3c12
10,107 to 110,COC=C(C(=O)OC)c1ccccc1C#CC1=CCN(c2ccc(Cl)cc2)O1
11,> 220,CCN(C)C1=NS(=O)(=O)c2cc(Cl)ccc2N1
12,202 to 203,Cc1cccc2nn(-c3cc(O)ccc3O)nc12
13,129 to 133,COc1cc(N2CCN(Cc3ccccc3)CC2)c2ncccc2c1C
14,103 to 106,COC(=O)CCCC#Cc1cc(Cl)ccc1NS(=O)(=O)c1ccc2nc(C)sc2c1
15,177 to 179,COC(=O)c1ccc(CC#N)cc1S(=O)(=O)NC(=O)Nc1nc(OC)cc(OC)n1
16,185 to 187,O=CNNc1ccc(NC(=O)c2cccc([N+](=O)[O-])c2)cc1
17,200 to 201,COc1cc2c(cc1OC)CN(CCc1ccc(NC(=O)c3cccc4c(=O)c5cccc(OC)c5[nH]c34)c(C)c1)CC2

# The next lines start with the molecule.
row,Compound,melting point [°C]
1,COC(=O)C1(NC(=O)Cc2cc(C)ccc2C)CCN(OC)CC1,91 to 93
2,CCN1C(=O)CN=C(c2ccccc2F)c2cc(C(C)N)ccc21 (stereo not drawn),53 to 55
3,CC(=O)OC1COC(SCCCCCCOC2CCC3(C)C(=CCC4C3CCC3(C)C(C(C)CCCC(C)C)CCC43)C2)C(OC(C)=O)C1OC(C)=O (stereo not drawn),106 to 108
4,c1ccc(OCCSCc2nnc(-c3ccc(OCCCCN4CCCC4)cc3)o2)cc1,45
5,COc1ccc(N2CCCN(/C(C)=C(/C#N)C(N)=S)CC2)cn1,159 to 161
6,CN(C)S(=O)(=O)c1ccc2c(c1)S(=O)(=O)NC(C1CCCCC1)N2 (stereo not drawn),243 to 245
7,Nc1cc2c(cn1)[nH]c1ccccc12,288 to 290
8,COc1ccc(C(=O)N2CCCC2=O)cc1O,123 to 125
9,COCc1nc2c(C(F)(F)F)cccc2c(=O)o1,104 to 106
10,CON=C1CN(c2nc3c(cc2F)c(=O)c(C(=O)O)cn3C2CC2)CC12CN(C)C2,225 to 227
11,CC(C)(C)OC(=O)N1C(=O)[C@H](O)[C@@H]1c1ccccc1,132
12,CCCC(=O)OCC(=O)C1(OC(C)=O)CCC2C3CC(C)C4=CC(=O)CCC4(C)C3C(O)CC21C (stereo not drawn),98 to 120
13,CCC1Cc2c(Br)cccc2C1O[Si](C)(C)C (stereo not drawn),133 to 135
14,CC(C)(C)CCN1C(=O)C(NC(=O)Oc2ccccc2)C(=O)N(c2ccccc2F)c2ccccc21 (stereo not drawn),199 to 200
15,Cc1nc(-c2ccccc2)nc(N2CCCC2C(=O)O)c1C (stereo not drawn),90 to 92
16,COc1c2c(c(OC)c(OC)c1OC)CC(CCCCCCC1Cc3c(c(OC)c(OC)c(OC)c3OC)C1)C2,100 to 108
17,Cc1ccc2[nH]c(=O)c(C#N)c(Cl)c2c1,264
18,CS(=O)(=O)C(=C1CN(C(c2ccccc2)c2ccccc2)C1)c1cccc(F)c1F,208
19,CCOc1nn(-c2ccc(C(F)(F)F)cn2)cc1CCCOc1ccccc1CCC(=O)O,93 to 94
20,c1cc(-c2cncnc2)cc(-n2cnc3cc(-n4cccc4)ccc32)c1,197 to 198
21,CC(C)C[C@H](N[C@H](CC(C)C)C(=O)OCc1ccccc1)C(=O)N[C@@H](Cc1ccccc1)C(N)=O,145 to 146

row,Compound,melting point [°C]
1,CCCCCCCCC#CCC#CCC#CCCCC(=O)NCC(O)CO (stereo not drawn),87
2,CC(C)C(NC=O)C(=O)O (stereo not drawn),143 to 145
3,O=C(NC(=O)c1cccs1)NC1CN2CCC1CC2 (stereo not drawn),232 to 233
4,CN1Sc2sccc2C=C1CO,128 to 130
5,Cc1c(-c2ccncc2)oc2c1C(=O)OC(C)C2 (stereo not drawn),157 to 160
6,Nc1nc2cc(OCc3ccccc3)ccc2c2c1nc(CCCCNC(=O)Nc1ccccc1)n2CCOc1ccccc1,186 to 187
7,CCOC(=O)c1cc2c(s1)CC(C)(C)C2=O,41 to 42
8,CC(C)(C)COc1nc(N2CCNCC2)nc(N2CCS(=O)CC2)c1[N+](=O)[O-],156 to 158
9,COc1cc(OC)cc(-n2c(-c3ccccc3F)cc(=O)c(C)c2-c2ccc(F)cc2F)c1,171 to 173
10,CCOC(=O)C1CN(C(=O)c2cc(OC)c(OC)c(OC)c2)CCN1 (stereo not drawn),114 to 115
11,NC(=NO)c1ncn2c1[C@@H]1CCN1C(=O)c1c-2ccc(F)c1Cl,236 to 238
12,CC(C)(C)OC(=O)NCCn1c(=S)[nH][nH]c(=O)c1=O,160
13,CNc1cc(-c2c(-c3ccc(F)cc3)ccn2C2CCNCC2)ccn1,165 to 167
14,CCn1c(=O)c2cnn3c2n(c1=O)CC=C3c1cccc(C(F)(F)F)c1,161 to 163
15,O=c1[nH]c(=S)c(C2c3ccccc3C=Cc3ccccc32)cn1-c1ccc(Sc2n[nH]c(C(F)(F)F)n2)nn1,165
16,COc1ccc(C(=O)N2c3ccccc3[C@H](N(C)c3ccccc3)C[C@@H]2C)cc1OC (relative stereo),180 to 181
17,O=C(N[C@@H](Cc1ccc(OCc2ccccc2)cc1)C(=O)O)c1cn2cc(/C=C/c3ccccc3)ccc2n1,262 to 263
18,C#CCOc1cc2ccccc2cc1COC(=O)C1CC1,58 to 60
19,CC(C)(C)[Si](C)(C)OCCn1cc([N+](=O)[O-])cn1,63 to 64
20,Cc1nc2cc(OCCCN3CC=C(c4c[nH]c5ccc(C#N)cc45)CC3)ccc2s1,263 to 265
21,CCCCCCc1sc(C(=O)O)c2c1-c1c(cnn1C)CC2,242 to 243

row,Compound,melting point [°C]
1,CN(C)C=Nc1sc(C=Nc2ccccc2)c(Cl)c1C#N,174
2,O=[N+]([O-])c1cc(CCO)c(NCCO)c([N+](=O)[O-])c1,115
3,C=CC(=O)[C@@H]1CCCC[C@H]1C(=O)O (relative stereo),101 to 102
4,O=C(c1ccc(OC2CCCCC2N2CCCC2)c(F)c1)c1c(-c2ccc(OCCN3CCCC3)cc2)sc2cc(OCc3ccccc3)ccc12 (stereo not drawn),47 to 51
5,COc1c(F)c(Oc2cc(C(F)(F)F)nn2C)nc(Oc2cc(C(F)(F)F)nn2C)c1F,83
6,CC12CCC(C(=O)O)=CC1=CCC1C2CCC2(C)C(C(=O)CCc3ccc(F)cc3)CCC12 (stereo not drawn),220
7,COc1ccc2c(c1)N1CCOCC1CN=C2c1ccco1 (stereo not drawn),130 to 132
8,Fc1ccc(Cn2c(OC3CCN(Cc4ccccc4)CC3)nc3cncnc32)cc1,117
9,CC(=O)Oc1cc(Br)cc2c1OC(C)(C)C2,76
10,COc1ccc(N2CCN(c3c(C)c(C)c4c(c3C)CC(C)(CN3CCS(=O)(=O)CC3)O4)CC2)cc1 (stereo not drawn),145 to 164
11,O=c1c2cc(F)ccc2[nH]c(=S)n1-c1ccccc1Cl,295 to 297
12,CCN(CC)c1ccc(C(c2ccc(N(C)C)cc2)c2ccc(N(C)C)cc2)c(O)c1,94 to 95
13,COc1cc2c(cc1OC)CC(NC(=O)N(C)O)CC2 (stereo not drawn),150 to 151
14,CC(C)c1c(Br)c(Br)c(-c2ccc(F)cc2)n1CC[C@H]1C[C@H](O)CC(=O)O1 (relative stereo),143
15,OCCON=Cc1ccc2ccccc2c1,87
16,Clc1c2c(nc3ccccc13)CCCNC2,127
17,CCN1Cc2nc(CO)cn2-c2ccccc21,160 to 165
18,CN(C)CCC1(c2ccccc2)CCc2ccccc2C1=O (stereo not drawn),71 to 72
19,COc1ccc2[nH]c3c(c4c(c5c6cc(OC)ccc6n(C)c35)C(=O)N(C)C4=O)c2c1,> 330
20,C[C@@H](n1ccn(-c2ccc(OC(F)(F)C(F)F)cc2)c1=O)[C@@]1(c2ccc(F)cc2F)CO1,117 to 118
21,OC(c1ccccc1)(c1ccc(Oc2ccccc2)cc1)c1ccccn1 (stereo not drawn),114

# Source: a melting point compilation (Tetko et al.; mined from patent text by program, amines drawn as free bases though some values may be those of a salt)
